≈ marks a conversion by molar mass, not a printed value.
How the values were obtained:
Salmonella typhimurium = assay: Antibacterial activity against multidrug-resistant Salmonella enterica subsp. enterica serovar Typhimurium BN9181 expressing floR; type: functional
[1] = Antibacterial activity against multidrug-resistant Salmonella enterica serovar Virchow B94 expressing floR2; type: functional, Salmonella enterica subsp. enterica serovar Virchow
[2] = Antibacterial activity against multidrug-resistant Salmonella enterica serovar Virchow B98 expressing floR2; type: functional, Salmonella enterica subsp. enterica serovar Virchow
[3] = Antibacterial activity against multidrug-resistant Salmonella enterica serovar Virchow B100 expressing floR2; type: functional, Salmonella enterica subsp. enterica serovar Virchow

Structure (SMILES): O=C(N[C@H](CO)[C@H](O)c1ccc([N+](=O)[O-])cc1)C(Cl)Cl [CHLORAMPHENICOL]
- MIC (Salmonella typhimurium): 256 µg/mL (≈ 792 µM)
- MIC [1]: > 256 µg/mL
- MIC [2]: > 256 µg/mL
- MIC [3]: > 256 µg/mL

Structure (SMILES): CS(=O)(=O)c1ccc([C@@H](O)[C@@H](CF)NC(=O)C(Cl)Cl)cc1 [FLORFENICOL]
- MIC (Salmonella typhimurium): 64 µg/mL (≈ 179 µM)
- MIC [1]: 32 µg/mL (≈ 89.3 µM)
- MIC [2]: 32 µg/mL (≈ 89.3 µM)
- MIC [3]: 32 µg/mL (≈ 89.3 µM)
